How the values were obtained:
[1] = system: Macrophage-like cells RAW267.4; assay: Release of [3H] arachidonic acid (lipid mediator) from macrophage-like cells treated with CaCl2-gluconic acid solutions; assay type: cell-based; conditions: FIG. 3
Protocol: An increased concentration of extracellular calcium ions activates an inflammatory response route through increase of intracellular calcium ion and/or a sensing mechanism of extracellular calcium ion. The present inventors studied whether induction of inflammatory responses due to increase of calcium ions can be prevented or not by chelating calcium ions. Solutions of 5 mM CaCl2—0.384% gluconic acid and 7.5 mM CaCl2—0.384% gluconic acid (referred to as Ca^2+Gluc.Acid), the pH of which were adjusted to approximately 7 with NaOH, were prepared and allowed to stand for one hour at room temperature. Macrophage-like cells RAW267.4, which were labeled with 1 μCi [^3H] arachidonic acid one day before, were treated with respective CaCl2-gluconic acid solutions for one hour, and measured for the amount of released lipid mediator with a liquid scintillation counter.
FIG. 3 is a graph, in place of a drawing, showing that gluconic acid prevents inflammatory responses induced by calcium ions. Each vertical axis of FIGS. 3A and 3B indicates release of arachidonic acid (rates of released [^3H] arachidonic acid). The higher value refers to more arachidonic acid being released, indicating an activation of arachidonate cascade, which is one of the major inflammatory responses. In FIG. 3, the “mock” refers to a sample without CaCl2 or gluconic acid addition, which was prepared as a control. […]

[2] = Chelating effect on calcium ion measured with a calcium ion electrode; assay type: physicochemical; conditions: 0.25% to 25% gluconic acid containing 2.5 mM CaCl2, pH 7.0; FIG. 2
Protocol: To confirm chelating effects of gluconic acid on calcium ion, the concentration of calcium ion in the presence of gluconic acid was measured with a calcium ion electrode. The vertical axis of FIG. 2 indicates the concentration of calcium ion (Ca^2+) (mg/L). […] The results might be attributed to the gluconic acid chelating calcium ions.

Row | SMILES | release of arachidonic acid (amount of released lipid mediator) ([1]; CaCl2 (5 mM or 7.5 mM) without gluconic acid, compared with the mock) | release of arachidonic acid (rates of released [3H] arachidonic acid) ([1]; 5 mM or 7.5 mM CaCl2 with 0.384% gluconic acid, pH approx. 7, cells treated one hour) | concentration of calcium ion (Ca2+) [2]
1 | [Ca+2].[Cl-].[Cl-] [CaCl2] | released increased amount of lipid mediator |  | 
2 | O=C(O)[C@H](O)[C@@H](O)[C@H](O)[C@H](O)CO [gluconic acid] |  | arachidonate cascade activation was prevented | the higher the concentration of gluconic acid became, the concentration of calcium ion lowered

Source: US8906111B2, “Artificial bone material having controlled calcium ion elution” (The University of Tokyo, priority 2008, dated 2014)
